Results on 27 molecules are retold here after patent publication US10934263B2, “Charged ion channel blockers and methods for use” (Nocion Therapeutics, Inc., priority 2019, dated 2021).

In test [1] the target is T1, NaV1.7 (Homo sapiens, UniProt Q15858).
T1 construct: expressed in transfected cells; tetracycline-inducible, kept under hygromycin and blasticidin
In words: Automated patch clamp (Qube 384), external block of NaV1.7 in HEK293 cells. The settings on record: compound in external solution, read-out: Nav1.7 Extracellular Inhibition (IC50). In kind it is cell-based. The gist of the method:
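Tetracycline-induced HEK293 cells; whole-cell patch clamp at 22 degrees, compound in external solution (pH 7.4; CsF internal). Held at −100 mV with 10 ms pulses to −20 mV at 5 Hz, recorded 10 min after compound exchange. Control-corrected; IC50 from Hill fit.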

The target in test [2] is T1, NaV1.7. In words: Whole cell patch clamp, internal block of NaV1.7 current (compound in internal solution). In kind it is cell-based. The settings on record: % inhibition at 10 μM, compound applied internally, manual patch clamp; read-out: Nav1.7 Intracellular Inhibition. The gist of the method:
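Tetracycline-induced NaV1.7 cells, whole-cell patch clamp at room temperature with compound in CsCl internal solution (pH 7.2), Ringer bath (pH 7.4). Held at −100 mV, steps to −20 mV; after baseline, four 30-s 5 Hz trains. Peak inward current at end of last train divided by baseline gives fraction remaining.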

Where “and” joins values, the source holds several entries; their conditions need not be identical. Equal values may be shown once.

T1 sequence (Q15858 whole entry): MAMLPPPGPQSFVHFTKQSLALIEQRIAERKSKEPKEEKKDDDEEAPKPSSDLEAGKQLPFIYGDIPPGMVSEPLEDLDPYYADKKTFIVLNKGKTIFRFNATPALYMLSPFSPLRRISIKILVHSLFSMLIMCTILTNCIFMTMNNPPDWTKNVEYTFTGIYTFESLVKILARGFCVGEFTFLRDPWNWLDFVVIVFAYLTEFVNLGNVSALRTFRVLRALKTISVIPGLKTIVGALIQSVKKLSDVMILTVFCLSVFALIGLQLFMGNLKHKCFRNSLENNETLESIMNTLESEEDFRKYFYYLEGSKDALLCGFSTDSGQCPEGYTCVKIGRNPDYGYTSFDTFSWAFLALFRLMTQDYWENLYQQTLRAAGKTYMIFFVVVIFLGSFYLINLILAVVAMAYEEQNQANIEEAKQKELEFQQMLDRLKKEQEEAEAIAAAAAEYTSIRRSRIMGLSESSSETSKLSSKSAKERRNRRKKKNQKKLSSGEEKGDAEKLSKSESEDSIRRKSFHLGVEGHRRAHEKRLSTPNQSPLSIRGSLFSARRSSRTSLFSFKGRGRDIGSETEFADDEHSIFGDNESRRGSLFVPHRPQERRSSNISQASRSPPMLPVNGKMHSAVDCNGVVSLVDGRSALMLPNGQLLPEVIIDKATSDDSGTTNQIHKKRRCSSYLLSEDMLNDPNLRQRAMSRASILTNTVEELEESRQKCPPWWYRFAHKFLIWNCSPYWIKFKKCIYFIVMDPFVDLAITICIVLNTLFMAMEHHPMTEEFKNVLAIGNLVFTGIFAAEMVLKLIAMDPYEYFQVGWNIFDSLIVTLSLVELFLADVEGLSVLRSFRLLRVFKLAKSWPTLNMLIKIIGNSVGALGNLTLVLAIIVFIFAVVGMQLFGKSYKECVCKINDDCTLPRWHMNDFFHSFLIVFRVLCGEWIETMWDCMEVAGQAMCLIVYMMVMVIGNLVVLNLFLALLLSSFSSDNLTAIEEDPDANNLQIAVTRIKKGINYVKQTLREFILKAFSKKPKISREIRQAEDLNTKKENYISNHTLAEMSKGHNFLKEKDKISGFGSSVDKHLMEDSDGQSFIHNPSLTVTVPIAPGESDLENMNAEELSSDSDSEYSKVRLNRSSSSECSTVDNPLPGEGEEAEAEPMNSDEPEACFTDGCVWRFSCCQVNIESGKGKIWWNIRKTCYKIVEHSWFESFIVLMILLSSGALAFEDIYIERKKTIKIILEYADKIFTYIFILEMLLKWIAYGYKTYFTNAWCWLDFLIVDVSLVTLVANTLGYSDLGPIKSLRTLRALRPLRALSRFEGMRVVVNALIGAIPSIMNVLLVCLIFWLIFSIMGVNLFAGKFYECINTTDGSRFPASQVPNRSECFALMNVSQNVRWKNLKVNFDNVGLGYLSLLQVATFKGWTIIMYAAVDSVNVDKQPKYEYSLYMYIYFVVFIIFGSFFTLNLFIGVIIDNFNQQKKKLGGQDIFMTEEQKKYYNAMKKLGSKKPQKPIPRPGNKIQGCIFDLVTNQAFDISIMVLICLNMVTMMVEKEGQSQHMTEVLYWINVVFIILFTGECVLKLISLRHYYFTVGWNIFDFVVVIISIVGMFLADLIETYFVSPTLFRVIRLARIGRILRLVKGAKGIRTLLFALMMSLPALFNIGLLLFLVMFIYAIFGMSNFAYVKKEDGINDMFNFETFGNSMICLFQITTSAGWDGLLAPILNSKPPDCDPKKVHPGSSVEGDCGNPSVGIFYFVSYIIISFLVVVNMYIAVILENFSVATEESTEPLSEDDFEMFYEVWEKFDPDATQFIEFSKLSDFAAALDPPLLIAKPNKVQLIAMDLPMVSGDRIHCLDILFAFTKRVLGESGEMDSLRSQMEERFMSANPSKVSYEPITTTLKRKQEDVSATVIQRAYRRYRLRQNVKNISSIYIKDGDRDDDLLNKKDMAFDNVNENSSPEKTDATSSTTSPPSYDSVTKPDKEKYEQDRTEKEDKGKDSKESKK

As to `Cc1cccc(C)c1NC(=O)C[n+]1cccc(S(=O)(=O)N(C)C)c1` [Compound 47], the IC50 on NaV1.7 [1] was 10 to 30 µM. In addition, the inhibition at 10 µM at NaV1.7 [2] is 70 to 95%.

As for `Cc1cccc(C)c1NC(=O)C(CC(C)C)[n+]1ccccc1` (stereo not drawn) [Compound 108], the IC50 on NaV1.7 [1] is more than 100 µM. The inhibition at 10 µM on NaV1.7 [2] fell in the range of 70 to 95%.

Turning to `Cc1cccc(C)c1NC(=O)C[n+]1cccc(S(C)(=O)=O)c1` [Compound 46], on NaV1.7 [1], the IC50 lay in the range of 10 to 30 µM. For the same molecule, the inhibition at 10 µM on NaV1.7 [2] fell in the range of 70 to 95%.

Regarding `COC(=O)c1c(F)c[n+](CC(=O)Nc2c(C)cccc2C)cc1F` [Compound 89], the IC50 on NaV1.7 [1] was more than 100 µM. Besides, the inhibition at 10 µM on NaV1.7 [2] was in the range of 40 to 70%.

In the case of `Cc1cccc(C)c1NC(=O)C[n+]1cc(OCc2ccccc2)ccc1Cl` [Compound 103], at NaV1.7 [1], the IC50 was 30 to 100 µM. Moreover, the inhibition at 10 µM at NaV1.7 [2] is more than 95%.

Take `Cc1cccc(C)c1NC(=O)C[n+]1cccn1CC1CC1` [Compound 73]: the IC50 on NaV1.7 [1] is more than 100 µM. Besides, the inhibition at 10 µM on NaV1.7 [2] is more than 95%.

Consider `Cc1cccc(C)c1NC(=O)C[n+]1cccc(Cc2ccccc2)c1` [Compound 34], for which the IC50 at NaV1.7 [1] was less than 10 µM. Also, the inhibition at 10 µM at NaV1.7 [2] lay in the range of 70 to 95%.

Regarding `Cc1cccc(C)c1NC(=O)C[n+]1cc(F)cc(-c2ccccc2)c1` [Compound 77], the IC50 on NaV1.7 [1] lay within 10 to 30 µM. In addition, the inhibition at 10 µM at NaV1.7 [2] was more than 95%.

In the case of `CCn1c(C)cc[n+]1CC(=O)Nc1c(C)cccc1C` [Compound 104], the IC50 on NaV1.7 [1] is more than 100 µM. Further, the inhibition at 10 µM at NaV1.7 [2] lay in the range of 70 to 95%.

On to `Cc1cccc(C)c1NC(=O)C[n+]1cccn1CC#N` [Compound 69], for which, on NaV1.7 [1], the IC50 is more than 100 µM. The inhibition at 10 µM on NaV1.7 [2] fell in the range of 40 to 70%.

With `CCOC(=O)c1cc(C)[n+](CC(=O)Nc2c(C)cccc2C)n1C` [Compound 84], the IC50 at NaV1.7 [1] is more than 100 µM. Also, the inhibition at 10 µM on NaV1.7 [2] lay within 70 to 95%.

For the molecule `Cc1cccc(C)c1NC(=O)C[n+]1cccc(C(F)(F)F)c1` [Compound 66], the 50% inhibitory concentration (IC50) on NaV1.7 [1] was in the range of 30 to 100 µM. Further, the inhibition at 10 µM at NaV1.7 [2] is 70 to 95%.

Take `CCNc1ccc[n+](CC(=O)Nc2c(C)cccc2C)c1` [Compound 50]: the IC50 on NaV1.7 [1] is 30 to 100 µM and > 100 µM. In addition, the inhibition at 10 µM at NaV1.7 [2] was more than 95%.

For `CNC(=O)Cc1ccc[n+](CC(=O)Nc2c(C)cccc2C)c1` [Compound 33], the IC50 on NaV1.7 [1] is more than 100 µM. The inhibition at 10 µM on NaV1.7 [2] lay in the range of 70 to 95%.

Regarding `CCCn1ccc(C)[n+]1CC(=O)Nc1c(C)cccc1C` [Compound 101], the IC50 at NaV1.7 [1] is more than 100 µM. Further, the inhibition at 10 µM at NaV1.7 [2] lay within 70 to 95%.

As for `Cc1cccc(C)c1NC(=O)C(Cc1ccccc1)[n+]1ccccc1` (stereo not drawn) [Compound 106], the IC50 on NaV1.7 [1] is more than 100 µM. In addition, the inhibition at 10 µM on NaV1.7 [2] was more than 95%.

With `CCOC(=O)Cn1cc(C)c[n+]1CC(=O)Nc1c(C)cccc1C` [Compound 76], the IC50 at NaV1.7 [1] was more than 100 µM. For the same molecule, the inhibition at 10 µM at NaV1.7 [2] fell in the range of 70 to 95%.

`Cc1cccc(C)c1NC(=O)C[n+]1cc2ccccc2n1C` [Compound 54]: on NaV1.7 [1], the IC50 is 30 to 100 µM. The inhibition at 10 µM at NaV1.7 [2] fell in the range of 70 to 95%.

For the molecule `CCOC(=O)CCCn1ccc[n+]1CC(=O)Nc1c(C)cccc1C` [Compound 75], at NaV1.7 [1], the IC50 is more than 100 µM. For the same molecule, the inhibition at 10 µM at NaV1.7 [2] was more than 95%.

For `CCCn1c(C)cc[n+]1CC(=O)Nc1c(C)cccc1C` [Compound 81], the IC50 at NaV1.7 [1] is more than 100 µM. Further, on NaV1.7 [2], the inhibition at 10 µM is 70 to 95%.

Turning to `Cc1cccc(C)c1NC(=O)C[n+]1c(C)cc(C)n1C` [Compound 94], the IC50 at NaV1.7 [1] lay in the range of 30 to 100 µM. For the same molecule, on NaV1.7 [2], the inhibition at 10 µM was 70 to 95%.

For `CCCCn1ccc[n+]1CC(=O)Nc1c(C)cccc1C` [Compound 83], the IC50 at NaV1.7 [1] was more than 100 µM. The inhibition at 10 µM at NaV1.7 [2] lay within 70 to 95%.

On to `Cc1cccc(C)c1NC(=O)Cn1ccc[n+]1CC(=O)Nc1c(C)cccc1C` [Compound 109], for which, at NaV1.7 [1], the IC50 was more than 100 µM. Further, at NaV1.7 [2], the inhibition at 10 µM is more than 95%.

`Cc1cccc(C)c1NC(=O)C[n+]1cccn1C1CCCC1` [Compound 71]: the IC50 at NaV1.7 [1] was more than 100 µM. Moreover, at NaV1.7 [2], the inhibition at 10 µM is more than 95%.

In the case of `COc1cc(OC)c[n+](CC(=O)Nc2c(C)cccc2C)c1` [Compound 98], the IC50 on NaV1.7 [1] is more than 100 µM. Besides, on NaV1.7 [2], the inhibition at 10 µM was 70 to 95%.

For the molecule `Cc1cccc(C)c1NC(=O)C[n+]1cccc(N2CCCC2)c1` [Compound 51], the IC50 at NaV1.7 [1] is more than 100 µM. For the same molecule, the inhibition at 10 µM on NaV1.7 [2] is more than 95%.

As to `CCn1ccc(C)[n+]1CC(=O)Nc1c(C)cccc1C` [Compound 95], the IC50 at NaV1.7 [1] is more than 100 µM. Besides, the inhibition at 10 µM on NaV1.7 [2] was less than 40%.
